{"source": "patent EP2218450A1", "about": "“Memantine for treating bipolar mood disorders resistant to conventional treatments” (Serra, Gino, priority 2009, dated 2010)", "key": {"[1]": {"test_system": "dopamine receptor sensitization", "conditions": "cited from earlier work"}, "OCD": {"test_system": "OCD", "conditions": "cited from earlier work"}, "catatonic schizophrenia": {"test_system": "catatonic schizophrenia", "conditions": "cited from earlier work"}, "depressive symptoms": {"test_system": "depressive symptoms", "conditions": "cited from earlier work"}, "addictions": {"test_system": "addictions", "conditions": "cited from earlier work"}, "bipolar patients": {"test_system": "bipolar patients", "protocol": "We report, in order to exemplify, the most clinically significant cases in bipolar patients (DSM IV-TR) resistant to hitherto available treatments.\nMemantine was administered at 10-30 mg/day (according to the doses used for Alzheimer Disease and in many off-label uses of the drug in other psychiatric disorders) to 18 bipolar patients (mean age 42, range 24-61, SD 11): 13 BP type 1 (11 women and 2 men) and 5 BP type 2 (3 women and 2 men).\nThe Memantine treatment was added to the ongoing treatment which was left unmodified. The severity of the patients' condition before Memantine, and the change after Memantine addition was evaluated on the GCI-BP Overall Bipolar Illness scale: • GCI-BP Overall Bipolar Illness: Severity • 1. Normal, not ill; • 2. Minimally ill; • 3. Mildly ill; • 4. Moderately ill; • 5. Markedly ill; • 6. Severely ill; • 7. Very severely ill.\nAll patients have been followed-up for 24 weeks. […] Very much improved • 2. Much improved • 3. […] No change • 5. Minimally worse • 6. Much worse • 7. Very much worse"}, "[2]": {"test_system": "Pervasive development disorders", "conditions": "five open clinical studies and one case report; cited from earlier work"}, "NMDA glutamate receptor": {"test_system": "NMDA glutamate receptor", "conditions": "compared to more powerful NMDA antagonists such as phencyclidine, ketamine and MK-801; cited from earlier work"}, "binge eating disorder": {"test_system": "binge eating disorder", "conditions": "five obese patients affected by binge eating disorder; cited from earlier work"}, "[3]": {"conditions": "at 24 weeks, Memantine 10-30 mg/day added to ongoing treatment, 18 bipolar patients"}}, "note": "Read-outs that look alike come from different tables or passages of the source."}
{"smiles": "O=C(O)C1CN(CCCP(=O)(O)O)CCN1", "note": "(stereo not drawn) [CPP]", "values": [{"measurement": "prevention of dopamine D2 receptors sensitization induced by imipramine", "setting": "[1]", "value": "fails to pevent"}]}
{"smiles": "C[C@]12N[C@H](Cc3ccccc31)c1ccccc12", "note": "[MK.801]", "values": [{"measurement": "prevention of dopamine receptor sensitization induced by electroconvulsive shock", "setting": "[1]", "value": "completely prevents"}, {"measurement": "prevention of dopamine receptor sensitization induced by imipramine", "setting": "[1]", "value": "completely prevents"}]}
{"smiles": "CC12CC3CC(C)(C1)CC(N)(C3)C2", "note": "[Memantine]", "values": [{"measurement": "patients with symptomatic improvements", "setting": "OCD; case reports, three patients with OCD, 5-15 mg a day", "value": "Two"}, {"measurement": "patients with symptomatic improvement", "setting": "OCD; open-label study, out of 14, Memantine 20 mg in combination with SSRIs", "value": 6, "unit": "patients"}, {"measurement": "effect in schizophrenia, controlled clinical trial", "setting": "catatonic schizophrenia; in combination with an atypical antipsychotic", "value": "No improvement was observed"}, {"measurement": "effect on symptoms of catatonic schizophrenia", "setting": "catatonic schizophrenia; three case reports, 10 mg twice a day in two patients, 10 mg per day in the other", "value": "improvement in the symptoms"}, {"measurement": "effect on depressive symptoms", "setting": "depressive symptoms; patient, 10 mg/die", "value": "improvement in the depressive symptoms"}, {"measurement": "effect on depressive symptoms", "setting": "depressive symptoms; person, 20 mg/die in combination with conventional antidepressant treatment, within a week", "value": "improvement in various depressive symptoms"}, {"measurement": "benefit in nicotine or cocaine addiction", "setting": "addictions", "value": "no benefit has been detected"}, {"measurement": "symptoms of heroin withdrawal", "setting": "addictions", "value": "effective in reducing the symptoms of heroin withdrawal"}, {"measurement": "symptoms of alcohol withdrawal syndrome", "setting": "addictions; one study (41)", "value": "reduction of the symptoms of alcohol withdrawal syndrome"}, {"measurement": "craving for alcohol", "setting": "addictions; two studies (39, 40)", "value": "reduction in craving for alcohol"}, {"measurement": "alcohol consumption", "setting": "addictions; two studies (42, 43), in one the effect did not significantly differ from placebo", "value": "reduction in alcohol consumption"}, {"measurement": "patients very much or much improved", "setting": "bipolar patients; after 24 weeks of Memantine treatment, 18 bipolar patients", "value": 72.2, "unit": "%"}, {"measurement": "rapid cyclers that reached stability", "setting": "bipolar patients; among the ten rapid cyclers, 24 weeks", "value": "six"}, {"measurement": "patients remained unchanged (score 4), GCI-BP overall Bipolar Illness: Change from preceding phase", "setting": "bipolar patients; [3]", "value": 3, "unit": "patients"}, {"measurement": "patients scored 1 (very much improved), GCI-BP overall Bipolar Illness: Change from preceding phase", "setting": "bipolar patients; [3]", "value": 9, "unit": "patients"}, {"measurement": "patients scored 2 (much improved), GCI-BP overall Bipolar Illness: Change from preceding phase", "setting": "bipolar patients; [3]", "value": 4, "unit": "patients"}, {"measurement": "patients scored 3 (minimally improved), GCI-BP overall Bipolar Illness: Change from preceding phase", "setting": "bipolar patients; [3]", "value": 2, "unit": "patients"}, {"measurement": "mean time to improvement", "setting": "bipolar patients; range 6-132, SD 48,4, Memantine 10-30 mg/day", "value": 55, "unit": "days"}, {"measurement": "effect on symptoms", "setting": "[2]", "value": "symptomatic improvement"}, {"measurement": "affinity for the receptor", "setting": "NMDA glutamate receptor", "value": "low affinity"}, {"measurement": "effect on appetite, binge eating and body weight", "setting": "binge eating disorder", "value": "diminished appetite, the disappearance of binge eating (in two out of five patients) and a reduction of body weight"}]}
